From the supplement of paper PMC11451515

Tested on: SEM cells
Experiment: cell viability relative to DMSO control; higher = less cytotoxic
Details: 48 h
Procedure, shortened: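 Before seeding, each leukemia line was adapted for at least four passages in each medium. NOMO1 or SEM cells (500 cells/well) and P12-Ichikawa cells (1000 cells/well) went into 1536-well plates at 5 μl, then received library compounds in DMSO by pin dosing across 11 threefold concentrations, 47 μM to 0.79 nM. Readout was CellTiter-Glo One luminescence after 48 h at 37°C, and viability is given as a per-plate percentage of DMSO wells, with cell-free wells as background.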

[1] = HPLM + 10% dialyzed FBS, 0.000781 µM
[2] = HPLM + 10% dialyzed FBS, 0.00234 µM
[3] = HPLM + 10% dialyzed FBS, 0.00702 µM
[4] = HPLM + 10% dialyzed FBS, 0.0211 µM
[5] = HPLM + 10% dialyzed FBS, 0.0632 µM
[6] = HPLM + 10% dialyzed FBS, 0.19 µM
[7] = HPLM + 10% dialyzed FBS, 0.569 µM
[8] = HPLM + 10% dialyzed FBS, 1.71 µM
[9] = HPLM + 10% dialyzed FBS, 5.12 µM
[10] = HPLM + 10% dialyzed FBS, 15.4 µM
[11] = HPLM + 10% dialyzed FBS, 46.1 µM
[12] = RPMI 5 mM glucose + 10% FBS, 0.000781 µM
[13] = RPMI 5 mM glucose + 10% FBS, 0.00234 µM
[14] = RPMI 5 mM glucose + 10% FBS, 0.00702 µM
[15] = RPMI 5 mM glucose + 10% FBS, 0.0211 µM
[16] = RPMI 5 mM glucose + 10% FBS, 0.0632 µM
[17] = RPMI 5 mM glucose + 10% FBS, 0.19 µM
[18] = RPMI 5 mM glucose + 10% FBS, 0.569 µM
[19] = RPMI 5 mM glucose + 10% FBS, 1.71 µM
[20] = RPMI 5 mM glucose + 10% FBS, 5.12 µM
[21] = RPMI 5 mM glucose + 10% FBS, 15.4 µM
[22] = RPMI 5 mM glucose + 10% FBS, 46.1 µM
[23] = RPMI 5 mM glucose + 10% dialyzed FBS, 0.000781 µM
[24] = RPMI 5 mM glucose + 10% dialyzed FBS, 0.00234 µM
[25] = RPMI 5 mM glucose + 10% dialyzed FBS, 0.00702 µM
[26] = RPMI 5 mM glucose + 10% dialyzed FBS, 0.0211 µM
[27] = RPMI 5 mM glucose + 10% dialyzed FBS, 0.0632 µM
[28] = RPMI 5 mM glucose + 10% dialyzed FBS, 0.19 µM
[29] = RPMI 5 mM glucose + 10% dialyzed FBS, 0.569 µM
[30] = RPMI 5 mM glucose + 10% dialyzed FBS, 1.71 µM
[31] = RPMI 5 mM glucose + 10% dialyzed FBS, 5.12 µM
[32] = RPMI 5 mM glucose + 10% dialyzed FBS, 15.4 µM
[33] = RPMI 5 mM glucose + 10% dialyzed FBS, 46.1 µM

| SMILES | cell viability [1] [%] | cell viability [2] [%] | cell viability [3] [%] | cell viability [4] [%] | cell viability [5] [%] | cell viability [6] [%] | cell viability [7] [%] | cell viability [8] [%] | cell viability [9] [%] | cell viability [10] [%] | cell viability [11] [%] | cell viability [12] [%] | cell viability [13] [%] | cell viability [14] [%] | cell viability [15] [%] | cell viability [16] [%] | cell viability [17] [%] | cell viability [18] [%] | cell viability [19] [%] | cell viability [20] [%] | cell viability [21] [%] | cell viability [22] [%] | cell viability [23] [%] | cell viability [24] [%] | cell viability [25] [%] | cell viability [26] [%] | cell viability [27] [%] | cell viability [28] [%] | cell viability [29] [%] | cell viability [30] [%] | cell viability [31] [%] | cell viability [32] [%] | cell viability [33] [%] |
| --- | --- | --- | --- | --- | --- | --- | --- | --- | --- | --- | --- | --- | --- | --- | --- | --- | --- | --- | --- | --- | --- | --- | --- | --- | --- | --- | --- | --- | --- | --- | --- | --- | --- |
| CCOC(=O)c1c(/C(C#N)=C\N)c2ccc(Cl)c(Cl)c2n1C | 85.8 | 86.1 | 85.2 | 96.9 | 76.5 | 94.1 | 95.5 | 81.7 | 92.6 | 83.4 | 57.4 | 86.7 | 99.2 | 89.9 | 94.1 | 84.6 | 89.7 | 97.8 | 94.4 | 89.6 | 84 | 62 | 80 | 97.7 | 81.8 | 87.8 | 71.6 | 89.3 | 102 | 84.4 | 94.8 | 75.2 | 76.9 |
| COc1ccc(CC2SC(=O)NC2=O)cc1C(=O)NCc1ccc(C(F)(F)F)cc1 (centres undefined) | 75 | 82.5 | 79 | 82.5 | 73.6 | 92.5 | 76.9 | 83.2 | 95.9 | 79.2 | 40.4 | 90 | 86.8 | 101 | 84.1 | 79.8 | 109 | 96.5 | 106 | 101 | 89.9 | 45.2 | 88 | 88.8 | 88.4 | 87.6 | 77.6 | 98.8 | 93.8 | 97.4 | 38.6 | 83.6 | 56.1 |
| O=C(c1ccc(C(=O)N2CCC(N3CCCC3)CC2)c(Nc2ccccc2)c1)N1CCC(N2CCCC2)CC1 | 119 | 111 | 115 | 94.8 | 116 | 113 | 107 | 107 | 103 | 98.7 | 96.4 | 112 | 106 | 109 | 104 | 105 | 115 | 117 | 102 | 89 | 102 | 103 | 80.7 | 91.2 | 102 | 104 | 98 | 102 | 104 | 112 | 101 | 88.5 | 82.6 |
| Clc1ccc(C(Cn2ccnc2)OCc2ccc(Sc3ccccc3)cc2)c(Cl)c1 (centres undefined) | 88.8 | 74.9 | 99.2 | 96.4 | 98.2 | 79.4 | 93.6 | 77.9 | 82.1 | 87.1 | 81.1 | 110 | 104 | 109 | 108 | 116 | 106 | 105 | 92.2 | 77 | 92.7 | 95.8 | 101 | 95.7 | 107 | 122 | 130 | 100 | 103 | 93.5 | 81 | 96.8 | 75.7 |
| Oc1ccc(C2CNCCc3c2cc(O)c(O)c3Cl)cc1 (centres undefined) | 98 | 103 | 90 | 91.2 | 91.5 | 104 | 90.8 | 48.5 | 102 | 89.5 | 108 | 83 | 95 | 97.2 | 96.6 | 84.6 | 97.5 | 90.8 | 47.5 | 103 | 91.4 | 94.6 | 81.9 | 93.1 | 86.6 | 96.6 | 76.9 | 112 | 100 | 70.2 | 114 | 101 | 102 |
| CCOC\1=C(/C(=O)NC2=CC=C(OC3=C(Cl)C(=NC=C3)N)C(=C2)F)C(=O)N(\C=C1)C4=CC=C(F)C=C4 | 95.5 | 97.7 | 98.4 | 94.7 | 91.1 | 76.8 | 63.3 | 50.6 | 32.8 | 28.9 | 15 | 122 | 118 | 105 | 95.9 | 98.4 | 91.1 | 75.5 | 53.3 | 39.7 | 27.5 | 6.35 | 92.1 | 83.9 | 96 | 90.1 | 82.4 | 76.4 | 57 | 40 | 33.9 | 22.9 | 6.07 |
| O=C(/C=C/c1cccnc1)NCCCCC1CCN(C(=O)c2ccccc2)CC1 | 76.5 | 86.3 | 22.7 | 9.57 | 7.6 | 6.37 | 6.62 | 6.08 | 6.74 | 6.78 | 5.79 | 103 | 65.1 | 14.8 | 7.35 | 21.9 | 5.86 | 6.67 | 6.71 | 5.95 | 5.65 | 3.92 | 105 | 32 | 13.8 | 7.49 | 7.08 | 6.77 | 6.47 | 6.21 | 6.4 | 7.09 | 4.78 |
| CNCCN(C)Cc1c[nH]nc1-c1ccc(O[C@H]2C[C@H](OCCC3CCOCC3)C2)cc1 | 98.5 | 96.9 | 116 | 110 | 112 | 122 | 116 | 112 | 103 | 60.6 | 35.9 | 101 | 103 | 147 | 117 | 115 | 120 | 107 | 130 | 45.2 | 45.1 | 24.7 | 130 | 111 | 125 | 135 | 156 | 118 | 145 | 156 | 112 | 73.1 | 29.4 |
| COc1cc2nc(N3CCN(C(=O)c4ccco4)CC3)nc(N)c2cc1OC | 54.4 | 61.9 | 81.8 | 86.4 | 89.7 | 85.8 | 73 | 91.9 | 87 | 16.4 | 13.6 | 76.2 | 78.4 | 90.6 | 80.6 | 104 | 96.2 | 98.4 | 101 | 105 | 13.5 | 8.2 | 78.2 | 88.3 | 93.8 | 104 | 109 | 81.2 | 91 | 91.4 | 80.2 | 14 | 11.9 |
| CC(=O)[C@H]1CC[C@H]2[C@@H]3C/C=C4/C[C@@H](O)CC[C@]4(C)[C@H]3CC[C@]12C | 100 | 91.7 | 96.8 | 103 | 113 | 115 | 114 | 106 | 113 | 114 | 115 | 113 | 116 | 126 | 117 | 124 | 116 | 126 | 121 | 123 | 118 | 119 | – | – | – | – | – | – | – | – | – | – | – |
| CCN(CCO)CCCC(C)Nc1ccnc2cc(Cl)ccc12 (centres undefined) | 102 | 93.8 | 114 | 76.2 | 105 | 118 | 5.95 | 95 | 106 | 62.6 | 49.9 | 105 | 102 | 117 | 93 | 102 | 108 | 6.8 | 78.2 | 104 | 64.8 | 42.5 | 98.4 | 80.5 | 104 | 82.5 | 107 | 99.6 | 5.67 | 66 | 100 | 52.1 | 37.2 |
| CN1\C(=C(O)/C2=C(C=C(Cl)S2)[S+]1([O-])=O)C(=O)NC3=NC=CC=C3 | 124 | 130 | 119 | 24.6 | 127 | 114 | 114 | 114 | 112 | 101 | 106 | 91.4 | 88 | 82.7 | 14.3 | 88.3 | 88.1 | 68.8 | 85.4 | 99.6 | 87.5 | 74.8 | 125 | 123 | 118 | 25.3 | 123 | 134 | 104 | 102 | 103 | 111 | 87.7 |
| COC1=C(CC=C(C)C)C2=C(\C=C/C(=O)O2)C=C1 | 83.3 | 79.7 | 80.4 | 89.5 | 76.9 | 90.1 | 74.6 | 98.6 | 71.8 | 71.1 | 58.5 | 93.2 | 103 | 95.4 | 117 | 102 | 112 | 100 | 81.4 | 77.5 | 65.9 | 53.6 | 108 | 118 | 121 | 103 | 99.7 | 113 | 115 | 91.8 | 85 | 90.2 | 54.2 |
| NC(=O)Cc1cccc(C(=O)c2ccccc2)c1N | 73 | 99.4 | 96.9 | 39.7 | 113 | 115 | 109 | 99.6 | 96 | 101 | 104 | 95.7 | 38.4 | 90.7 | 33.4 | 101 | 95.2 | 95 | 107 | 95.5 | 88.8 | 85.1 | 44.3 | 78.3 | 101 | 43.1 | 97.4 | 107 | 103 | 112 | 95.4 | 105 | 85.2 |
| C[C@@H](Oc1ccc2[nH]nc(/C=C/c3cnn(CCO)c3)c2c1)c1c(Cl)cncc1Cl | 90.3 | 86.4 | 85.9 | 85.9 | 85.6 | 58.6 | 31.3 | 37.2 | 20 | 14.8 | 30.9 | 118 | 136 | 103 | 103 | 108 | 75.5 | 32.7 | 42.8 | 15.6 | 13.8 | 21 | 82.4 | 84.6 | 82 | 73.5 | 80 | 50.9 | 17.5 | 33.7 | 12.4 | 10.9 | 20.9 |
